Assay results from US20230159509A1 (Amathus Therapeutics, Inc., priority 2020, published 2023).
pEC50: −log10 of the molar value.

Target: T1, TRAP1 enzyme (Homo sapiens, UniProt Q12931)
T1 construct: 150 nM Trap1 enzyme was incubated with various concentrations of the test compound
T1 sequence (Q12931 60-704): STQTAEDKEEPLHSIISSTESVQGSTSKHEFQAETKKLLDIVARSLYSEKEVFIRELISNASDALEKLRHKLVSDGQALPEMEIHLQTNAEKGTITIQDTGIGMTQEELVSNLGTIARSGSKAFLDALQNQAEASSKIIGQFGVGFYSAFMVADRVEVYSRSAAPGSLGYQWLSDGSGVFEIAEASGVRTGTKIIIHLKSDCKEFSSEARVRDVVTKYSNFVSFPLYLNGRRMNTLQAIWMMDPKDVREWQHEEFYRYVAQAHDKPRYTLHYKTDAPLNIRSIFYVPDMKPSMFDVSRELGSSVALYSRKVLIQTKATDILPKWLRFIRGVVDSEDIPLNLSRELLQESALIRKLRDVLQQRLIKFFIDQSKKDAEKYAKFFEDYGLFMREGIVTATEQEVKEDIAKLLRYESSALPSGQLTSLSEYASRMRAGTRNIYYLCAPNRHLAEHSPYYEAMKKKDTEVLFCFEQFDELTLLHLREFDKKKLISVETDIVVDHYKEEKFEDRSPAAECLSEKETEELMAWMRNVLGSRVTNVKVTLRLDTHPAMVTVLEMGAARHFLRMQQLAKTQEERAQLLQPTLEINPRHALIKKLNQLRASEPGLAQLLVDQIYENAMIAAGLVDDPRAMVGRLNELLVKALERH
Experiment: ADP Glo assay of TRAP1 ATPase activity
Format: biochemical
Settings: for pEC50: concentration for half maximal activation, read-out: ADP GLO DRC: GeoMean EC50; for Emax: maximal percent activation, read-out: ADP GLO DRC: Mean Emax; for activation at 50 µM: 1 h, compound concentration 50 μM, read-out: ADP-Glo Percent Activation at 50 μM
Outline: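 Compound (0.79–100 μM) was preincubated 30 min at 37° C with 150 nM TRAP1 in 25 mM Pipes pH 7.5, 40 mM KCl, 0.05 mM MgCl2. Reaction started with 20 μM ATP, 60 min at 37° C. ADP measured by luminescence against a standard curve; activation fitted sigmoidally for EC50 and Emax.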

| SMILES | pEC50 | Emax [%] | activation at 50 µM [%] |
| --- | --- | --- | --- |
| COc1ncc(NC(=O)c2ncc(-c3ccccc3)o2)cc1S(=O)(=O)Nc1ccc(F)c(F)c1C [compound 2366] | > 5.00 | 160 to 199 |  |
| COc1ncc(NC(=O)c2coc(-c3ccccc3)n2)cc1S(=O)(=O)Nc1ccc(F)cc1C(C)C [compound 2381] | > 5.00 | 200 to 300 |  |
| COc1ncc(NC(=O)c2coc(-c3cccnc3)n2)cc1S(=O)(=O)Nc1c(C)cccc1C [compound 2387] | 4.00 to 4.70 | 200 to 300 |  |
| COc1ncc(NC(=O)c2csc(-c3cccnc3)n2)cc1S(=O)(=O)Nc1ccc(F)c(F)c1C [compound 2390] | 4.70 to 5.00 | 200 to 300 |  |
| COc1ncc(NC(=O)c2ncc(-c3ccccc3)o2)cc1S(=O)(=O)Nc1nc(C(C)(C)C)ns1 [compound 2396] | 4.00 to 4.70 | 160 to 199 |  |
| COc1ncc(NC(=O)c2cnc(-c3ccccc3)o2)cc1S(=O)(=O)Nc1cccc(C(F)(F)F)n1 [compound 2397] | 4.00 to 4.70 | 119 to 159 |  |
| COc1ncc(NC(=O)c2coc(-c3ccccc3)n2)cc1S(=O)(=O)Nc1nc(C(C)(C)C)ns1 [compound 2403] | 4.00 to 4.70 | 200 to 300 |  |
| COc1ncc(NC(=O)c2csc(-c3cc(F)c(F)c(F)c3)n2)cc1S(=O)(=O)Nc1cc(C)n(C(C)C)n1 [compound 2407] | 4.70 to 5.00 | 119 to 159 |  |
| Cc1cccc(C)c1NS(=O)(=O)c1cc(NC(=O)c2csc(-c3ccccc3)n2)cnc1OCC(O)CO (stereo not drawn) [compound 2418] | > 5.00 | 160 to 199 |  |
| COc1ncc(NC(=O)c2csc(-c3ccccc3OCC(O)CO)n2)cc1S(=O)(=O)Nc1c(C)cccc1C (stereo not drawn) [compound 2427] | > 5.00 | 200 to 300 |  |
| COc1ncc(NC(=O)c2csc(-c3ccccc3)n2)cc1S(=O)(=O)N(CC(O)CO)c1ccc(Cl)cc1 (stereo not drawn) [compound 2431] | > 5.00 | 160 to 199 |  |
| COc1ncc(NC(=O)c2csc(-c3cccc(Cl)n3)n2)cc1S(=O)(=O)Nc1c(C)cccc1C [compound 2445] | > 5.00 | 160 to 199 |  |
| COc1ncc(NC(=O)c2coc(-c3ccccc3)n2)cc1S(=O)(=O)Nc1cccc2cnc(C)cc12 [compound 2447] | 4.70 to 5.00 | 160 to 199 |  |
| COc1ncc(NC(=O)c2csc(-c3cccc(OCC4COC(C)(C)O4)n3)n2)cc1S(=O)(=O)Nc1c(C)cccc1C (stereo not drawn) [compound 2454] | > 5.00 | 119 to 159 |  |
| COc1ncc(NC(=O)c2csc(-c3cccc(OCC(O)CO)n3)n2)cc1S(=O)(=O)Nc1c(C)cccc1C (stereo not drawn) [compound 2463] | > 5.00 | 200 to 300 |  |
| COc1ncc(NC(=O)c2csc(-c3cc(F)c(F)c(F)c3)n2)cc1S(=O)(=O)Nc1c(C)csc1C [compound 2466] | > 5.00 | 160 to 199 |  |
| COc1ncc(NC(=O)c2ncoc2C(C)C)cc1S(=O)(=O)Nc1ccc(Cl)cc1 [compound 2487] | 4.70 to 5.00 | 160 to 199 |  |
| [2H]c1c([2H])c([2H])c(C([2H])([2H])[2H])c(NS(=O)(=O)c2cc(NC(=O)c3csc(-c4ccccc4)n3)cnc2OC)c1[2H] [compound 2492] | > 5.00 | 119 to 159 |  |
| [2H]c1c([2H])c([2H])c(C([2H])([2H])[2H])c(NS(=O)(=O)c2cc(NC(=S)c3coc(-c4ccccc4)n3)cnc2OC)c1[2H] [compound 2493] | 4.00 to 4.70 | 160 to 199 |  |
| COc1ncc(NC(=O)c2coc(-c3ccccc3)n2)cc1S(=O)(=O)Nc1c(C2CC2)cccc1C1CC1 [compound 2497] | > 5.00 | 160 to 199 |  |
| COc1ncc(NC(=O)c2csc(-c3ccccc3)n2)cc1S(=O)(=O)Nc1c(C2CC2)cccc1C1CC1 [compound 2499] | > 5.00 | 160 to 199 |  |
| [2H]c1c([2H])c([2H])c(-c2nc(C(=O)Nc3cnc(OC)c(S(=O)(=O)Nc4c(C)cccc4C)c3)cs2)c([2H])c1[2H] [compound 2500] | > 5.00 | 119 to 159 |  |
| COc1ncc(NC(=O)c2csc(-c3ccccc3)n2)cc1S(=O)(=O)Nc1c(C)cccc1P(C)(C)=O [compound 2506] | 4.00 to 4.70 | 200 to 300 |  |
| COc1ncc(NC(=O)c2ncc(-c3ccccc3)o2)cc1S(=O)(=O)Nc1nc(C(F)(F)F)ccc1C [compound 2512] | 4.70 to 5.00 | 119 to 159 |  |
| COc1ncc(NC(=O)c2c3c(nn2C)CCC3)cc1S(=O)(=O)Nc1c(C)cccc1C [compound 2528] |  |  | 181 to 352 |
| COc1ncc(NC(=O)c2cn(C(C)C)nn2)cc1S(=O)(=O)Nc1c(C)cccc1C [compound 2538] |  |  | 120 to 150 |
| COc1ncc(NC(=O)c2cncc(N(C)C)n2)cc1S(=O)(=O)Nc1c(C)cccc1C [compound 2543] |  |  | 181 to 352 |
| CCN1CCN(Cc2ccccc2C(=O)Nc2cnc(OC)c(S(=O)(=O)Nc3c(C)cccc3C)c2)CC1 [compound 2547] |  |  | 120 to 150 |

Now from value to compound:

| pEC50 | Emax [%] | activation at 50 µM [%] | SMILES |
| --- | --- | --- | --- |
| > 5.00 | 160 to 199 |  | COc1ncc(NC(=O)c2ncc(-c3ccccc3)o2)cc1S(=O)(=O)Nc1c(C)cccc1C [compound 2470] |
| 4.00 to 4.70 | 160 to 199 |  | COc1ncc(NC(=O)c2c[nH]c(C(F)(F)F)n2)cc1S(=O)(=O)Nc1c(C)cccc1C [compound 2474] |
| 4.70 to 5.00 | 160 to 199 |  | COc1ncc(NC(=O)c2csc(C(C)C)n2)cc1S(=O)(=O)Nc1c(C)cccc1C [compound 2496] |
| 4.70 to 5.00 | 160 to 199 |  | COc1ncc(NC(=O)c2csc(C(F)(F)F)n2)cc1S(=O)(=O)Nc1c(C)cccc1C [compound 2498] |
| 4.00 to 4.70 | 160 to 199 |  | COc1ncc(NC(=O)c2csc(C)n2)cc1S(=O)(=O)Nc1c(C)cccc1C [compound 2501] |
| 4.70 to 5.00 | 119 to 159 |  | COc1ncc(NC(=O)c2csc(Br)n2)cc1S(=O)(=O)Nc1c(C)cccc1C [compound 2502] |
|  |  | 181 to 352 | COc1ncc(NC(=O)c2ccc3c(c2)CC(=O)N3)cc1S(=O)(=O)Nc1c(C)cccc1C [compound 2523] |
|  |  | 151 to 180 | COc1ncc(NC(=O)c2c(C)noc2C)cc1S(=O)(=O)Nc1c(C)cccc1C [compound 2524] |
|  |  | 151 to 180 | COc1ncc(NC(=O)c2cccc3c2CCC(=O)N3)cc1S(=O)(=O)Nc1c(C)cccc1C [compound 2525] |
|  |  | 120 to 150 | COc1ncc(NC(=O)c2ccn3cnnc3c2)cc1S(=O)(=O)Nc1c(C)cccc1C [compound 2526] |
|  |  | 181 to 352 | COc1ncc(NC(=O)c2ccc(C#N)cc2)cc1S(=O)(=O)Nc1c(C)cccc1C [compound 2529] |
|  |  | 120 to 150 | COc1ncc(NC(=O)c2ccc(OC(F)(F)F)cc2)cc1S(=O)(=O)Nc1c(C)cccc1C [compound 2531] |
|  |  | 151 to 180 | COc1ncc(NC(=O)c2ccc(N3CCCC3=O)cc2)cc1S(=O)(=O)Nc1c(C)cccc1C [compound 2532] |
|  |  | 151 to 180 | COc1ncccc1C(=O)Nc1cnc(OC)c(S(=O)(=O)Nc2c(C)cccc2C)c1 [compound 2535] |
|  |  | 151 to 180 | COc1ncc(NC(=O)c2cccc(C(F)(F)F)c2)cc1S(=O)(=O)Nc1c(C)cccc1C [compound 2536] |
|  |  | 120 to 150 | COc1ncc(NC(=O)c2ccc3ncnn3c2)cc1S(=O)(=O)Nc1c(C)cccc1C [compound 2537] |
|  |  | 181 to 352 | COc1ncc(NC(=O)c2cccn2C)cc1S(=O)(=O)Nc1c(C)cccc1C [compound 2539] |
|  |  | 120 to 150 | COc1ncc(NC(=O)c2ccc3c(c2)nnn3C)cc1S(=O)(=O)Nc1c(C)cccc1C [compound 2541] |
|  |  | 151 to 180 | COc1ncc(NC(=O)c2ccc(F)cc2)cc1S(=O)(=O)Nc1c(C)cccc1C [compound 2542] |
|  |  | 181 to 352 | COc1ncc(NC(=O)c2ccc(N3CCCCC3)nc2)cc1S(=O)(=O)Nc1c(C)cccc1C [compound 2544] |
|  |  | 151 to 180 | COc1cncc(C(=O)Nc2cnc(OC)c(S(=O)(=O)Nc3c(C)cccc3C)c2)c1 [compound 2545] |
|  |  | 120 to 150 | COc1cnccc1C(=O)Nc1cnc(OC)c(S(=O)(=O)Nc2c(C)cccc2C)c1 [compound 2546] |
|  |  | 181 to 352 | COc1ncc(NC(=O)c2ccccc2C)cc1S(=O)(=O)Nc1c(C)cccc1C [compound 2548] |
|  |  | 120 to 150 | COc1cccnc1C(=O)Nc1cnc(OC)c(S(=O)(=O)Nc2c(C)cccc2C)c1 [compound 2549] |
|  |  | 151 to 180 | COc1ncc(NC(=O)c2ccccc2C(F)(F)F)cc1S(=O)(=O)Nc1c(C)cccc1C [compound 2550] |
|  |  | 120 to 150 | COc1ncc(NC(=O)c2cn(C)nc2C(F)F)cc1S(=O)(=O)Nc1c(C)cccc1C [compound 2551] |
|  |  | 151 to 180 | COc1ncc(NC(=O)c2cnn(C3CC3)c2)cc1S(=O)(=O)Nc1c(C)cccc1C [compound 2552] |
|  |  | 120 to 150 | COc1ncc(NC(=O)c2ccnn2C(C)C)cc1S(=O)(=O)Nc1c(C)cccc1C [compound 2553] |
|  |  | 181 to 352 | COc1ncc(NC(=O)c2ccc(N3CCOCC3)nc2)cc1S(=O)(=O)Nc1c(C)cccc1C [compound 2554] |
